Data taken from PubChem BioAssay (NCI).
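All cell lines were grown in 96-well plates and treated with compound for 48 hours. The concentration for full growth arrest is given as TGI.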

Assays:
Assay in all cases: inhibition of tumour cell growth, NCI panel, 48 h
OVCAR-5 ovarian = system: OVCAR-5 ovarian
NCI-H460 lung = system: NCI-H460 lung
MALME-3M melanoma = system: MALME-3M melanoma
MDA-MB-231 breast = system: MDA-MB-231 breast
ACHN renal = system: ACHN renal
NCI-H23 lung = system: NCI-H23 lung
HOP-92 NSCLC = system: HOP-92 NSCLC
NCI-H522 lung = system: NCI-H522 lung
CAKI-1 renal = system: CAKI-1 renal
PC-3 prostate = system: PC-3 prostate
EKVX NSCLC = system: EKVX NSCLC
T-47D breast = system: T-47D breast
MCF7 breast = system: MCF7 breast
NCI-H226 lung = system: NCI-H226 lung
MDA-N = system: MDA-N
SF-268 CNS = system: SF-268 CNS
HCT-15 colon = system: HCT-15 colon
HOP-62 NSCLC = system: HOP-62 NSCLC

Measured: TGI

Nc1nc(Cl)c(N)c(NCC2(CO)CCC(OCc3ccccc3)C2)n1 (stereo not drawn)
> 100 µM: all assays above
